Data taken from PubChem BioAssay AID844 (SRMLSC, 2007).
Calls of active or inactive are those of the source. How the calls were made is not given here.

System: MRP1 cells, doxorubicin viability shift, 10 uM compound
Assay: doxorubicin EC50 increase in MRP-1 cells, dose response, cell-based, doxorubicin EC50 shift (AID 844)
Conditions: for EC50: measured here: doxorubicin EC50 with compound

| Compound | fold increase in Dox EC50 | EC50 [µM] |
| --- | --- | --- |
| CCOC(=O)c1sc2nc3n(c(=O)c2c1C)CCCCC3 | 0.52 (inactive) | 2.81 |
| CCOC(=O)CSc1nc(N)nc(C)c1Br | 0.78 (inactive) | 4.2 |
| O=C(c1ccco1)N1CCN(c2nc(C3CC3)nc3c2nnn3Cc2ccccc2Cl)CC1 | 0.32 (inactive) | 1.7 |
| O=C(Nc1cccn(Cc2c(Cl)cccc2Cl)c1=O)c1c(Cl)cccc1Cl | 1.07 (inactive) | 5.79 |
| CCc1nnc(NC(=O)C2CCCN2S(=O)(=O)c2ccccc2)s1 (stereo not given) | 1.46 (inactive) | 7.89 |
| COc1ccc(/C=N/Nc2cc(OC)ncn2)cc1 | 0.57 (inactive) | 3.1 |
| O=C(NCCN1C(=O)S/C(=C/c2ccccc2)C1=O)C1CCCN1C(=O)c1cccs1 (stereo not given) | 0.61 (inactive) | 3.3 |
| CC(/C=N\NC(=O)CN1CCN(S(=O)(=O)c2ccc(C)cc2)CC1)=C\c1ccccc1 | 1.26 (inactive) | 6.79 |
| Cc1ccc2nc(/N=C(\N)NC(=O)N3c4ccccc4Sc4ccccc43)nc(C)c2c1 | 1.94 | 10.5 |
| Cc1cccc(OCCNC(=O)c2ccc(Oc3ccc(C(F)(F)F)cc3[N+](=O)[O-])cc2)c1 | 1.12 (inactive) | 6.05 |
| O=C(NCc1ccc(Cl)cc1)C(=O)NCC(c1ccco1)N1CCOCC1 (stereo not given) | 1.25 (inactive) | 6.77 |
| COc1ccccc1-c1cc(C(=O)NC(C)c2ccccc2)no1 (stereo not given) | 1.04 (inactive) | 5.64 |
| COC(=O)N/N=C/c1ccc(-c2ccc(Cl)c(Cl)c2)o1 | 0.67 (inactive) | 3.62 |
| C=CCc1c(C)nc(-c2ccccc2)nc1N/N=C(\C)c1ccc(N)cc1 | 1.3 (inactive) | 6.99 |
| CCOC(=O)Cc1csc(NC(=O)c2c(-c3ccccc3)noc2C)n1 | 0.44 (inactive) | 2.4 |
| COc1cccc(/C=N/NC(=O)C(C)n2nc(C)c([N+](=O)[O-])c2C)c1O (stereo not given) | 0.33 (inactive) | 1.77 |
| CCCCC1S/C(=N/N=C/c2ccc(OC)cc2)N(Cc2ccc(OC)cc2)C1=O (stereo not given) | 1.18 (inactive) | 6.34 |
| Cc1ccc2[nH]c(=O)c(C(c3nnnn3C3CCCC3)N3CCCc4ccccc43)cc2c1 (stereo not given) | 1 (inactive) | 5.41 |
| CC/C(=N\NC(=O)C(N)=O)c1ccccc1O | 0.61 (inactive) | 3.29 |
| COc1ccc(CCNC(=O)CSCc2ccc(Cl)cc2)cc1OC | 0.67 (inactive) | 3.59 |
| Cc1nc2ccccc2c(=O)n1/N=C/c1c(O)ccc2oc3c(c12)CCCC3 | 0.28 (inactive) | 1.5 |
| CCOc1ccc(Cn2nnc(C(=O)NCCc3ccccc3)c2N)cc1 | 1.05 (inactive) | 5.65 |
| N#CC1=C(N)SC(N)=C(C#N)C1c1cccc(O)c1 | 1.07 (inactive) | 5.78 |
| Cc1ccc(OCc2nnc(SC3CCc4ccccc4C3=O)n2C)cc1 (stereo not given) | 1.22 (inactive) | 6.56 |
| Cc1noc(/C=C/N(C)C)c1S(=O)(=O)N1CCCC(C(=O)NCc2ccccc2Cl)C1 (stereo not given) | 0.82 (inactive) | 4.42 |
| Cc1ccc(NC(=O)CCNC(=O)c2ccc(Cl)cc2)cc1F | 1.15 (inactive) | 6.19 |
| CCOc1ccc(NC(=O)N2CCC(n3c(=O)[nH]c4ccccc43)CC2)cc1 | 0.9 (inactive) | 4.85 |
| O=C(NCCc1ccc(Cl)cc1)c1cnc2n(c1=O)CCS2 | 0.66 (inactive) | 3.55 |
| CCOc1ccc(Cn2nnc(C(=O)NCCc3ccc(Cl)cc3)c2N)cc1 | 1.6 | 8.64 |
| Cc1ccc(OCc2nnc(SCC(=O)Nc3cccc4ccccc34)n2-c2ccccc2)cc1 | 0.33 (inactive) | 1.8 |
